In patent US20170307610A1, “COMPOUNDS THAT BIND DYSTROGLYCAN AND USES THEREOF” (OREGON HEALTH & SCIENCE UNIVERSITY, priority 2014, published 2017):

Assays:
MEpG MECs (DG−/− or DG+) = assay: Laminin internalization in dystroglycan-deleted or re-expressing cells, flow cytometry; format: cell-based, mouse; settings: n=6
From the text: Genetic manipulation of laminin receptor expression was employed in order to identify the specific receptor(s) mediating laminin internalization. […] To test the role of DG in laminin internalization, an MEC cell line containing an engineered dystroglycan deletion (MEpG) was used (Weir M L et al, 2006 supra). The MEpG cell line was infected with retroviral empty vector (creating control DG−/− cells) or retrovirus expressing DG (creating DG+ cells). Immunoblotting confirmed the expected presence or absence of DG expression in these cell types (FIG. 11A). […] The compiled mean fluorescence intensity (MFI) data of cells expressing DG was nearly four-fold higher than cells lacking DG expression (DG+=18.04±4.6; DG−/−=4.84±1.43, n=6, FIG. 7C). Therefore, the majority of laminin internalization observed in functionally normal mammary epithelial cells appeared to depend on dystroglycan function.
(§1) Cell culture—Primary mammary epithelial cells from control or ΔDGK14-Cre mid-pregnant mice were obtained as previously described (Weir et al, 2006 supra). DG-knockout (MEpG and MEpL cells), and WT E3D1 mammary epithelial cells were established as described previously (Weir et al, 2006 supra) from floxed-DG mice. β1 int-knockout (E3D1 cre19) MECs were established from floxed -β1 int primary MECS, as above. MECs were grown in DME/F12, 2% FBS, 10 μg/ml insulin and 5 ng/ml EGF (BD Biosciences, San Jose, Calif., USA). Human DG, β1 int, or wedge β1 int genes (Luo B H et al, Proc Natl Acad Sci USA 102, 3679-3684 (2005); incorporated by reference herein) were cloned into the retroviral expression vector, pBMN-IRES-PURO as described previously (Weir et al, 2006 supra) and verified by sequencing. […] These cultures produced >95% astrocytes as determined by staining with GFAP astrocyte marker antibody.
(§2) Flow Cytometry—Cells were plated in 12 well plates at 200,000 cells/well. […] Using a BD FACScan flow cytometer (BD Biosciences, San Jose, Calif., USA), 10,000 cells/well were counted, background fluorescence from the cell counts with no added laminin subtracted and the mean fluorescence intensity values reported. […]

[1] = test system: E3D1cre19 MECs (β1 Int−/− or β1 Int+); assay: Laminin internalization in β1 integrin-deleted or re-expressing cells, flow cytometry; format: cell-based, mouse
From the text: The integrin family of ECM receptors is expressed in the DG−/− cell population (MepG-vec and MepL-vec cell lines, FIG. 11A), but are apparently unable to mediate significant laminin internalization alone (FIG. 7B). To directly test the role of integrins in laminin internalization, an MEC cell line containing an engineered β1 integrin (β1 int) deletion, E3D1cre19 (β1 Intl−/−) was used (cre19-vec, FIG. 11A, see Example 10 infra). These β1 int−/− cells were infected with the empty vector retrovirus or with a WT β1 int expressing retrovirus. The re-expression of WT β1 integrin in β1 int−/− cells produced a modest but statistically insignificant change ([…]) in laminin internalization (MFI β1 Intl−=21.4±3; β1 Int+=26.8±1.2; n=6, p=0.17) (FIG. 7D). […] Therefore, although the β1 integrins are not required for the majority laminin internalization, they can enhance it, possibly as co-receptors with DG (Leonoudakis D et al, 2010 supra; Weir M L et al, 2006 supra).
as §1, with “USA).” for “USA). Human DG, β1 int, or wedge β1 int genes (Luo B H et al, Proc Natl Acad Sci USA 102, 3679-3684 (2005); incorporated by reference herein) were cloned into the retroviral expression vector, pBMN-IRES-PURO as described previously (Weir et al, 2006 supra) and verified by sequencing.”
as §2

[2] = test system: MDA-MB-231 human breast cancer cells; assay: Laminin internalization in vector or LARGE expressing cells, flow cytometry; format: cell-based
From the text: (§3) Loss of DG's laminin binding function is a cause of some congenital muscular dystrophies (CMDs) and is a frequent defect in cancers including those of the breast, prostate, colon, and brain (Akhavan A et al, 2012 supra; Beltran-Valero de Bernabe et al, 2009 infra). This loss of function arises from altered glycosylation of DG and can be restored in many carcinoma and glioblastoma cells by expression of the enzyme LARGE, a glycosyltransferase that confers laminin-binding properties to DG (Akhavan et al., 2012; Beltran-Valero de Bernabe D et al, J Biol Chem 284, 11279-11284 (2009); incorporated by reference herein. Based on these facts in light of the disclosure herein, it was hypothesized that laminin internalization would be severely disrupted in cancer cells lacking DG activity and enhanced by the restoration of such activity. This hypothesis was tested in MDA-MB-231 human breast cancer cells and LN18 human glioma cells, both of which lack DG glycosylation and function. […] Expression of LARGE restored normal glycosylation of DG as determined by western blot analysis with IIH6 antibody (FIG. 10A, LARGE) and functional interaction of DG in the laminin assembly assay (FIG. 10B, LARGE). These cells were subsequently assayed for laminin internalization by flow cytometry.
(§4) Flow Cytometry—Cells were plated in 12 well plates at 200,000 cells/well. The following day, media was changed to serum-free media with or without 10 μg/ml rhodamine laminin or 40 μg/ml FITC-dextran (500S-Sigma-Aldrich Corp., St. Louis, Mo., USA). Unless otherwise indicated, cells were incubated 18-24 hrs, washed once with PBS, and cells trypsinized. Cells were washed in 5 ml cold PBS/1 mM EDTA, pelleted, and resuspended in 1 ml PBS/1 mM EDTA. Using a BD FACScan flow cytometer (BD Biosciences, San Jose, Calif., USA), 10,000 cells/well were counted, background fluorescence from the cell counts with no added laminin subtracted and the mean fluorescence intensity values reported. Graphed data are compiled from duplicate wells from each experiment with a minimum of three separate experiments, unless indicated otherwise.

LN18 human glioma cells = assay: as above; format: cell-based
From the text: as §3, §4

## Rhod-Ln: laminin-111 labeled with NHS-rhodamine; dystroglycan binding reagent
MEpG MECs (DG−/− or DG+); cells expressing DG, 18 hours
  MFI of internalized laminin, DG+ cells: 18.04±4.6
MEpG MECs (DG−/− or DG+); cells lacking DG, 18 hours
  MFI of internalized laminin, DG−/− cells: 4.84±1.43
MEpG MECs (DG−/− or DG+); compiled MFI
  more laminin internalized by DG+ MECs than DG−/− MECs: 380%
[1]; WT β1 integrin re-expressed, n=6
  MFI of internalized laminin, β1 Int+ cells: 26.8±1.2
[1]; empty vector, n=6
  MFI of internalized laminin, β1 Int−/− cells: 21.4±3
[1]; statistically insignificant, p=0.17
  increase in laminin internalization on re-expression of WT β1 integrin: 20%
[2]; MDA-MB-231
  increase in MFI of internalized laminin, LARGE vs vector: 68 fold
[2]; MDA-MB-231 LARGE, Rhod-Ln 18 hours, n=3
  MFI of internalized laminin, LARGE expressing cells: 6.82 +/−0.241
[2]; MDA-MB-231 empty vector, Rhod-Ln 18 hours, n=3
  MFI of internalized laminin, vector cells: 0.1+/−0.014
LN18 human glioma cells; LN18
  increase in MFI of internalized laminin, LARGE vs vector: 10 fold
LN18 human glioma cells; LN18 LARGE, n=3
  MFI of internalized laminin, LARGE expressing cells: 1.49±0.049
LN18 human glioma cells; LN18 empty vector, n=3
  MFI of internalized laminin, vector cells: 0.145±0.155
